From US8084456B2, “Pyrazine-based tubulin inhibitors” (YM Biosciences Australia Pty Ltd, priority 2002, dated 2011) come the findings set out here.

Format in all cases: cell-based
Test [1] concerns DU145 (Prostate Cancer) cells. Put plainly: Cellular growth assay (MTT), DU145. Particulars: Homo sapiens, DU-145, 40 hr incubation, read-out: DU145 (inhibition of 50% of cellular growth). Here is the method:
(§1) K562 (Chronic Myeloid Leukemia), PC3 (Prostate Cancer), and DU145 (Prostate Cancer) were obtained from the American Type Culture Collection (ATCC). K562 was grown in RPMI, with 10% FBS with Glutamx added. DU145 cells were cultured in DMED, with 10% FBS and Glutamx and MEM non-essential amino acids added. PC3 cells were grown in F12K medium, with 10% FBS and Glutamx and MEM non-essential amino acids added. All cells were grown at 37° C. in 5% CO2.

Test [2] concerns PC3 (Prostate Cancer) cells. As to the kind of experiment: Cellular growth assay (MTT), PC3. The note with it: Homo sapiens, PC-3, 40 hr incubation, read-out: PC3 (inhibition of 50% of cellular growth). How it is done:
as §1

In test [3] the test system is K562 (Chronic Myeloid Leukemia) cells. As to the kind of experiment: Cellular growth assay (MTT), K562. Particulars: Homo sapiens, 40 hr incubation, read-out: K562 (inhibition of 50% of cellular growth). How it is done:
as §1

Test [4] has as its target TelJak2 (Homo sapiens, UniProt O60674). Put plainly: Cellular growth assay (MTT), BaF3 TEL/JAK2 cells. The note with it: 40 hr incubation, read-out: TelJak2 (inhibition of 50% of cellular growth).
Test [5] concerns the target TelJak3 (Homo sapiens, UniProt P52333). Put plainly: Cellular growth assay (MTT), BaF3 TEL/JAK3 cells. The note with it: 40 hr incubation, read-out: TelJak3 (inhibition of 50% of cellular growth).

Sequence of TelJak3 (P52333 with tags, fused parts or gaps): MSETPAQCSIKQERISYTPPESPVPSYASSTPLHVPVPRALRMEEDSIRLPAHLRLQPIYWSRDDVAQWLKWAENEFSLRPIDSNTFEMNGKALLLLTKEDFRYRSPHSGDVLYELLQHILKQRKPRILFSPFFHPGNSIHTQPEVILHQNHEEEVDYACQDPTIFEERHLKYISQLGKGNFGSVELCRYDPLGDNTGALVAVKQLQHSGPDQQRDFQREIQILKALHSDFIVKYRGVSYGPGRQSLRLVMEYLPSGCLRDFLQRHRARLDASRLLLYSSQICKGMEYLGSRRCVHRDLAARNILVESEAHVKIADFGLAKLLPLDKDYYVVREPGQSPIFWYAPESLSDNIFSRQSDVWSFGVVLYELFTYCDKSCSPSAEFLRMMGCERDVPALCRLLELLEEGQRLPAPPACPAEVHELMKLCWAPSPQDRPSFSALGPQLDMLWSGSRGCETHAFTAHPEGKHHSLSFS
Sequence of TelJak2 (O60674 with tags, fused parts or gaps): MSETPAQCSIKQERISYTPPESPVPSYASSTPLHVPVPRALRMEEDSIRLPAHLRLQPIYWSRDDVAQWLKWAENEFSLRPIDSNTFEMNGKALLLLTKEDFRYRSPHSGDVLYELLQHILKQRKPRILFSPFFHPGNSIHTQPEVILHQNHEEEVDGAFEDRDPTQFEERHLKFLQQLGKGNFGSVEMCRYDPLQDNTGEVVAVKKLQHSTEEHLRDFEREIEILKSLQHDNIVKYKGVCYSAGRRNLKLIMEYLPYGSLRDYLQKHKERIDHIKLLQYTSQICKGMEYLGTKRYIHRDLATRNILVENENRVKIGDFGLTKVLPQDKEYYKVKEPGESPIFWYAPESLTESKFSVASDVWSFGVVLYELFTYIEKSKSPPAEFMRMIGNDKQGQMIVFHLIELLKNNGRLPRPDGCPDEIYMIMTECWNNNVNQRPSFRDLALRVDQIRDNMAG

For the molecule `CCCC(Nc1cncc(-c2ccc(O)c(OC)c2)n1)c1cccc(NC(C)=O)c1` (stereo not shown), the IC50 is more than 20 µM in test [1]; more than 20 µM in test [2]; not above 20 µM in test [3]; not above 20 µM in test [4]; not above 20 µM in test [5].

With `CCCC(Nc1cncc(-c2ccc(O)c(OC)c2)n1)c1cccc(C#N)c1` (stereo not shown), the IC50 in test [1] is more than 20 µM; in test [2], not above 20 µM; in test [3], not above 20 µM; in test [4], not above 20 µM; in test [5], not above 20 µM.

For the molecule `CCCC(Nc1cncc(-c2ccc(NS(C)(=O)=O)c(OC)c2)n1)c1ccc(F)cc1` (stereo not shown), the IC50 in test [1] was more than 20 µM; in test [2], not above 20 µM; in test [3], not above 20 µM; in test [4], not above 20 µM; in test [5] it was not above 20 µM.

In the case of `CCCC(Nc1cncc(-c2ccc3c(c2)OCO3)n1)c1cccnc1` (stereo not shown), the IC50 in test [1] is more than 20 µM; in test [2], more than 20 µM; in test [3], not above 20 µM; in test [4], not above 20 µM; in test [5], not above 20 µM.

Consider `CCCC(Nc1cncc(-c2ccc(O)c(OC)c2)n1)c1cccc([C@H](O)OCCOCC)c1` (stereo partly shown), for which the IC50 is more than 20 µM in test [1]; more than 20 µM in test [2]; not above 20 µM in test [3]; not above 20 µM in test [4]; not above 20 µM in test [5].

In the case of `CCCOC(=O)c1cccc(C(CCC)Nc2cncc(-c3ccc(O)c(OC)c3)n2)c1` (stereo not shown), the IC50 was more than 20 µM in test [1]; not above 20 µM in test [2]; not above 20 µM in test [3]; not above 20 µM in test [4]; not above 20 µM in test [5].

For `CCCC(Nc1cncc(-c2ccc(O)c(OC)c2)n1)c1cccc(F)c1F` (stereo not shown), the IC50 in test [1] is more than 20 µM; in test [2] it was more than 20 µM; in test [3], not above 20 µM; in test [4], not above 20 µM; in test [5], not above 20 µM.

Take `CCCC(Nc1cncc(-c2ccc(O)c(OC)c2)n1)c1ccc(Cl)c(F)c1` (stereo not shown): the IC50 in test [1] is more than 20 µM; in test [2] it was more than 20 µM; in test [3] it was not above 20 µM; in test [4] it was not above 20 µM; in test [5] it was not above 20 µM.

For the molecule `CCCC(Nc1cncc(-c2ccc(O)c(OCC)c2)n1)c1cccc(F)c1` (stereo not shown), the IC50 in test [1] is more than 20 µM; in test [2] it was not above 20 µM; in test [3] it was not above 20 µM; in test [4], not above 20 µM; in test [5] it was not above 20 µM.

For the molecule `CCCC(Nc1cncc(-c2ccc(O)c(OC)c2)n1)c1cccc(OC(F)(F)F)c1` (stereo not shown), the IC50 in test [1] was more than 20 µM; in test [2], more than 20 µM; in test [3] it was not above 20 µM; in test [4], not above 20 µM; in test [5], not above 20 µM.

As to `CCCC(Nc1nc(-c2ccc(O)c(OC)c2)cnc1N)c1cccc(F)c1` (stereo not shown), the IC50 was more than 20 µM in test [1]; more than 20 µM in test [2]; not above 20 µM in test [3]; not above 20 µM in test [4]; not above 20 µM in test [5].

For the molecule `CCCC(Nc1cncc(-c2ccc(O)c(OC)c2)n1)c1cc(F)ccc1F` (stereo not shown), the IC50 in test [1] is more than 20 µM; in test [2], more than 20 µM; in test [3], not above 20 µM; in test [4], not above 20 µM; in test [5] it was not above 20 µM.

As to `CCCC(Nc1cncc(-c2ccc(O)c(OC)c2)n1)c1cccc(C(=O)NC)c1` (stereo not shown), the IC50 is more than 20 µM in test [1]; more than 20 µM in test [2]; not above 20 µM in test [3]; not above 20 µM in test [4]; not above 20 µM in test [5].

Turning to `CCCC(Nc1cncc(-c2ccc(O)c(OC)c2)n1)c1cccc(C(=O)NC(C)C2CC2)c1` (stereo not shown), the IC50 in test [1] is more than 20 µM; in test [2], more than 20 µM; in test [3] it was not above 20 µM; in test [4], not above 20 µM; in test [5], not above 20 µM.

Turning to `CCCC(Nc1cncc(-c2ccc(O)c(OC)c2)n1)c1cccc(C(=O)NCCN(C)C)c1` (stereo not shown), the IC50 is more than 20 µM in test [1]; not above 20 µM in test [2]; not above 20 µM in test [3]; not above 20 µM in test [4]; not above 20 µM in test [5].

For the molecule `CCCC(Nc1cncc(-c2ccc(O)c(OC)c2)n1)c1cccc(C(=O)NCc2cccnc2)c1` (stereo not shown), the IC50 in test [1] was more than 20 µM; in test [2] it was more than 20 µM; in test [3], not above 20 µM; in test [4], not above 20 µM; in test [5], not above 20 µM.

Consider `CCCC(Nc1cncc(-c2ccc(O)c(OC)c2)n1)c1ccncc1` (stereo not shown), for which the IC50 in test [1] is more than 20 µM; in test [3], not above 20 µM; in test [4], not above 20 µM; in test [5], not above 20 µM.

Consider `CCCC(Nc1cncc(-c2ccc(O)c(OCC)c2)n1)c1cncc(C)c1` (stereo not shown), for which the IC50 is more than 20 µM in test [1]; not above 20 µM in test [2]; not above 20 µM in test [3]; not above 20 µM in test [4]; not above 20 µM in test [5].

Consider `CCCC(Nc1cncc(-c2ccc(NC(C)=O)c(OC)c2)n1)c1cncc(C)c1` (stereo not shown), for which the IC50 is not above 20 µM in test [1]; more than 20 µM in test [2]; not above 20 µM in test [3]; not above 20 µM in test [4]; not above 20 µM in test [5].

Consider `CCCC(Nc1cncc(-c2ccc(O)c(OCC)c2)n1)c1cccnc1` (stereo not shown), for which the IC50 is more than 20 µM in test [1]; not above 20 µM in test [2]; not above 20 µM in test [3]; not above 20 µM in test [4]; not above 20 µM in test [5].

Consider `COc1cc(-c2cncc(NC(CCC3OCCO3)c3cccc(Cl)c3)n2)ccc1O` (stereo not shown), for which the IC50 is more than 20 µM in test [1]; more than 20 µM in test [2]; not above 20 µM in test [3]; not above 20 µM in test [4]; not above 20 µM in test [5].

As to `CCCC(Nc1cncc(-c2cc(OC)c(O)c(OC)c2)n1)c1ccccc1` (stereo not shown), the IC50 in test [1] is more than 20 µM; in test [2] it was more than 20 µM; in test [3], more than 20 µM; in test [4], not above 20 µM; in test [5], not above 20 µM.

As to `CCCC(Nc1cncc(-c2ccc(NC(C)=O)c(OC)c2)n1)c1cccnc1` (stereo not shown), the IC50 is more than 20 µM in test [1]; not above 20 µM in test [2]; not above 20 µM in test [3]; not above 20 µM in test [4]; not above 20 µM in test [5].

Consider `CCCC(Nc1cncc(-c2ccc(N)c(OC)c2)n1)c1ccccc1` (stereo not shown), for which the IC50 in test [1] is more than 20 µM; in test [2], more than 20 µM; in test [3], not above 20 µM; in test [4], not above 20 µM; in test [5], not above 20 µM.

Consider `CCCC(=O)Nc1ccc(-c2cncc(NC(CCC)c3cccnc3)n2)cc1OC` (stereo not shown), for which the IC50 in test [2], in test [3], in test [4] and in test [5] was not above 20 µM throughout.

As for `CCC[C@H](Nc1cncc(-c2ccc(NC(C)=O)c(OC)c2)n1)c1ccccc1`, the IC50 is more than 20 µM in test [2], not above 20 µM in test [4] and not above 20 µM in test [5].

For `CCN(CC)CCCC(Nc1cncc(-c2ccc(O)c(OC)c2)n1)c1ccccc1` (stereo not shown), the IC50 in test [1] is more than 20 µM; in test [2], more than 20 µM; in test [3], more than 20 µM; in test [4], not above 20 µM; in test [5], not above 20 µM.

Take `CCN(CC)CCCCC(Nc1cncc(-c2ccc(O)c(OC)c2)n1)c1ccccc1` (stereo not shown): the IC50 in test [1] was not above 20 µM; in test [2], more than 20 µM; in test [3], more than 20 µM; in test [4], not above 20 µM; in test [5], not above 20 µM.
